Results from patent publication US11986478B2 (priority 2021, dated 2024).
Read-outs that look alike come from different tables or passages of the source.

What was measured:
SARS-CoV-2 [1] = test system: SARS-CoV-2; set-up: species or system golden Syrian hamster; conditions: hamster, in vivo
hCoV-229E = type: cell-based
[2] = test system: Huh7, VeroE6/TMPRSS2, Calu-3, Caco-2, BSC1 cells and human embryonic lung fibroblasts (HELF)
MERS-CoV PLpro [3] = molecular target: T1, MERS-CoV PLpro (Middle East respiratory syndrome-related coronavirus, UniProt K9N7C7); type: cell-based
[4] = test system: cellular proteases (serine, cysteine and acid proteases) in Huh-7, Caco-2 and A549 lysates; type: biochemical, human
SARS-CoV-2 [5] = type: cell-based
hCoV-OC43 = type: cell-based
[6] = test system: MERS-CoV-infected Huh-7 cells; type: cell-based, human
[7] = test system: SARS-CoV-2-infected Caco-2 cells; type: cell-based, human
SARS-CoV-2 [8] = test: microbe, parasite or virus in culture; type: cell-based; conditions: Severe acute respiratory syndrome coronavirus 2, read-out: EC50 anti-SARS-CoV-2 activity
MERS-CoV [9] = type: cell-based
SARS-CoV-2 PLpro [10] = molecular target: T2, SARS-CoV-2 PLpro (Severe acute respiratory syndrome coronavirus 2, UniProt P0DTD1); type: biochemical
MERS-CoV [11] = type: cell-based; remark: listed apart in the source
MERS-CoV PLpro [12] = molecular target: T1, MERS-CoV PLpro; type: biochemical
MERS-CoV [13] = type: cell-based; remark: listed apart in the source
SARS-CoV-2 [14] = type: cell-based; remark: listed apart in the source
SARS-CoV-2 PLpro [15] = molecular target: T2, SARS-CoV-2 PLpro; test: biochemical; type: biochemical
SARS-CoV-2 PLpro [16] = molecular target: T2, SARS-CoV-2 PLpro; type: biochemical; remark: listed apart in the source
Caco-2 and Huh-7 cells = type: cell-based, human
human DUBs = type: biochemical
SARS-CoV-2 PLpro [17] = molecular target: T2, SARS-CoV-2 PLpro; type: cell-based
MERS-CoV PLpro [18] = molecular target: T1, MERS-CoV PLpro; type: biochemical; remark: listed apart in the source
[19] = read-out: IC50 against SARS-CoV-2-PLpro

T1 sequence (K9N7C7 1552-1823 limits assumed): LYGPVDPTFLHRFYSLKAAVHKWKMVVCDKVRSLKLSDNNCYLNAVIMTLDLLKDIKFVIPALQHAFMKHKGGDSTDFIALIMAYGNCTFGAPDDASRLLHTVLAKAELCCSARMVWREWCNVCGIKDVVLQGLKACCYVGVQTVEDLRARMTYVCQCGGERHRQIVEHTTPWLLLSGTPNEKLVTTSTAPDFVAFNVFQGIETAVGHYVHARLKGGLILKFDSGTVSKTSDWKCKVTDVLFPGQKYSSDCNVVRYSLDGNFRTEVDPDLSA

O=C(Nc1ccccc1Cl)c1sc(=S)n2c1[nH]c(=O)c1ccccc12 [Compound F0213]
SARS-CoV-2 N expression in lung by immunofluorescence (SARS-CoV-2 [1]): reduced N expression
SARS-CoV-2 genome copies in the lungs (SARS-CoV-2 [1]): suppression
lung damage by H & E staining (SARS-CoV-2 [1]): improved morphology and milder infiltrations
decrease of virus plaque-forming units in lung tissues (SARS-CoV-2 [1]; 5 mg/kg/day): 1-2 log 10
efficacy by route on lung genome copies (SARS-CoV-2 [1]; 5 mg/kg/day): superior efficacy via PO route than that of IP injection
decrease of viral yields (hCoV-229E): about 2 log 10
cytotoxicity in the matching cell lines [2]: negligible cytotoxicity
rescue of IFN-β, IRF3 and NF-κB reporter gene expression (MERS-CoV PLpro [3]): rescued the genes expression in a dose-dependent manner
cellular protease activity [4]: not affected
inhibition of virus replication by NP antigen immunofluorescence (SARS-CoV-2 [5]): significant inhibition of virus replication
decrease of viral yields (hCoV-OC43): around 1.5 log 10
transcription levels of ISG15 and PKR [6]: reduced
expression of IFN-responsive genes ISG15 and PKR [7]: significantly enhanced
EC50 (SARS-CoV-2 [8]): 4.5 µM
antiviral EC50 against MERS-CoV compared with SARS-CoV-2 (MERS-CoV [9]): lower antiviral EC50 against MERS-CoV than SARS-CoV-2
cleavage of ISG15-AMC and Ubiquitin-AMC (SARS-CoV-2 PLpro [10]): inhibited cleavage
inhibition of virus replication by NP antigen immunofluorescence (MERS-CoV [11]): significant inhibition of virus replication
cleavage of ISG15-AMC and Ubiquitin-AMC (MERS-CoV PLpro [12]): inhibited cleavage
decrease of viral yields (MERS-CoV [13]): about 3 log 10
reduction of SARS-CoV-2 viral yields (SARS-CoV-2 [14]): more than 1 log 10
IC50 (SARS-CoV-2 PLpro [15]; [19]): 7.4 µM
modification of PLpro by HA-Ub-VS (SARS-CoV-2 PLpro [16]): eliminated in the presence of GRL0617 but not F0213
cellular antiviral signaling (Caco-2 and Huh-7 cells): potentiated the cellular antiviral signaling
modification of cellular DUBs by HA-Ub-VS (human DUBs): no change was noted in the immunoblot pattern
rescue of IFN-β, IRF3 and NF-κB reporter gene expression (SARS-CoV-2 PLpro [17]): rescued the genes expression in a dose-dependent manner

COc1cc2c(=O)[nH]c3c(C(=O)Nc4cc(Cl)ccc4C)sc(=S)n3c2cc1OC [Compound F0326]
EC50 (SARS-CoV-2 [8]): 7.6 µM
IC50 (SARS-CoV-2 PLpro [15]): 8.2 µM

Cc1cccc(NC(=O)c2sc(=S)n3c2[nH]c(=O)c2cc4c(cc23)OCO4)c1 [Compound F0393]
IC50 (SARS-CoV-2 PLpro [15]; [19]): 15.8 µM

CCN1C(=O)C=CC1=O [NEM, N-ethyl-maleimide, reference compound]
modification of cellular DUBs by HA-Ub-VS (human DUBs): diminished the modification of HA-Ub-VS on DUBs

GRL0617 [reference compound]
inhibition of virus replication by NP antigen immunofluorescence (SARS-CoV-2 [5]): marginal virus suppression
effect on MERS-CoV-PLpro activity (MERS-CoV PLpro [18]): without impairing the MERS-CoV-PLpro activity
inhibition of virus replication by NP antigen immunofluorescence (MERS-CoV [11]): marginal virus suppression
modification of PLpro by HA-Ub-VS (SARS-CoV-2 PLpro [16]): almost completely eliminated
